{"source": "patent US6613322B2", "about": "“Method for treating a subject suffering from conditions associated with an extracellular zinc sphingomyelinase” (The Trustees of Columbia University in the City of New York, priority 1997, dated 2003)", "molecules": {"B1": {"name": "sPLA2: human recombinant nonpancreatic soluble PLA2 (protein, UniProt P14555 21-144, looked up)", "Phospholipase A2, membrane …": "NLVNFHRMIKLTTGKEAALSYGFYGCHCGVGGRGSPKDATDRCCVTHDCCYKRLEKRGCGTKFLSYKFSNSGSRITCAKQDSCRSQLCECDKAAATCFARNKTTYNKKYQYYSNKHCRGSTPRC"}}, "key": {"[1]": {"molecular_target": "T1, L-SMase (Mus musculus, UniProt Q04519)", "T1 construct": "endogenous in cells; host or cells: J774.A1 macrophages, sonicated cell homogenate", "T1 sequence (Q04519 45-627)": "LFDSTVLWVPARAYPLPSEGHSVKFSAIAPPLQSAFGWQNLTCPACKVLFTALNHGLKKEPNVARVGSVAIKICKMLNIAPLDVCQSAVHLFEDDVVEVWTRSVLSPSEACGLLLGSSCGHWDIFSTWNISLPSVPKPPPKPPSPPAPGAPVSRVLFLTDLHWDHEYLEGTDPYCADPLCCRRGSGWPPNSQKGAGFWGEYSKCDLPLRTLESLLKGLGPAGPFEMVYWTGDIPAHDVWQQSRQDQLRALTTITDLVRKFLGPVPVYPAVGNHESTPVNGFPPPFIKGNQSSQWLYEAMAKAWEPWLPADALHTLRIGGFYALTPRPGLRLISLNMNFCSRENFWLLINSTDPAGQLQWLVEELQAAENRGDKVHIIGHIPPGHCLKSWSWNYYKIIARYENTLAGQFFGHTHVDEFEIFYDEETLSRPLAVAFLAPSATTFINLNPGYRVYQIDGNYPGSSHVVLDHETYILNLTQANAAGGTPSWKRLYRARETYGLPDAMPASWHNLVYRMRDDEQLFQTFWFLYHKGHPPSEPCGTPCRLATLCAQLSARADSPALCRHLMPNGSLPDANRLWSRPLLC", "assay": "SMase assay of cell homogenate from J774 macrophages (SM micelles, pH 5.0)", "format": "biochemical", "conditions": "1,10-phenanthroline alone", "description": "FIGS. 14A-B. Sequential chelation and addition of Zn^2+ to secreted and intracellular SMase. Serum-free conditioned medium and a cell homogenate from J774 macrophages were prepared as described in “Experimental Procedures”. FIG. 14A, conditioned medium (CM) was assayed for SMase activity using 250 nM [^3H]sphingomyelin in Triton X-100 micelles in the presence of either 5 mM EDTA (first bar) or 0.1 mM ZnCl2 (second bar) for 1 h at 37° C. at pH 5.0. An aliquot of the Zn-activated conditioned medium was then incubated for 18 h in the presence of 10 mM EDTA, 10 mM 1,10-phenanthroline, and 0.6% Triton X-100 at 4° C. (EDTA PHNANTH) and then assayed for SMase activity (third bar). […]\n(§1) SMase Assay—As previously described (Schissel et al., 1996), the standard 200-μl assay mixture consisted of up to 40 μl of sample (conditioned media or homogenized cells; see above) and a volume of assay buffer (0.1 M sodium acetate, pH 5.0) to bring the volume to 160 μl. […] The ceramide spots were scraped and directly counted to quantify [^3H]ceramide. Typically, the assay reactions contained approximately 20 μg of cellular homogenate protein and a volume of conditioned media derived from a quantity of cells equivalent to approximately 50 μg of cellular protein."}, "[2]": {"molecular_target": "T2, S-SMase (Mus musculus, UniProt Q04519)", "T2 construct": "endogenous in cells; host or cells: J774.A1 macrophages, serum-free conditioned medium", "T2 sequence (Q04519 45-627)": "T1 sequence (Q04519 45-627)", "assay": "SMase assay of conditioned medium from J774 macrophages (SM micelles, pH 5.0)", "format": "biochemical", "conditions": "1,10-phenanthroline alone", "description": "FIGS. 14A-B. Sequential chelation and addition of Zn^2+ to secreted and intracellular SMase. Serum-free conditioned medium and a cell homogenate from J774 macrophages were prepared as described in “Experimental Procedures”. FIG. 14A, conditioned medium (CM) was assayed for SMase activity using 250 nM [^3H]sphingomyelin in Triton X-100 micelles in the presence of either 5 mM EDTA (first bar) or 0.1 mM ZnCl2 (second bar) for 1 h at 37° C. at pH 5.0. An aliquot of the Zn-activated conditioned medium was then incubated for 18 h in the presence of 10 mM EDTA, 10 mM 1,10-phenanthroline, and 0.6% Triton X-100 at 4° C. (EDTA PHNANTH) and then assayed for SMase activity (third bar). After chelation, a portion of this partially inactivated conditioned medium was then dialyzed against zinc-containing buffer C (150 mM NaCl, 10 mM Tris-HCl, 1 mM ZnCl2, 0.6% Triton X-100, pH 7.4) for 18 h and then assayed for SMase activity (fourth bar). FIG. 14B, an aliquot of cell homogenate (Cell Homgn) was assayed for SMase activity in the presence of assay buffer alone (first bar), 5 mM EDTA (second bar), or 0.1 mM ZnCl2 (third bar). Another aliquot of cell homogenate was incubated for 8 h in the presence of 10 mM EDTA, 10 mm 1,10-phenanthroline, and 0.6% Triton X-100 (EDTA PHNANTH) at 4° C. and then assayed for SMase activity (fourth bar). An aliquot of this chelator-treated cell homogenate was then dialyzed against zinc-containing buffer C for 18 h and then assayed for SMase activity (fifth bar).\nas §1"}, "[3]": {"molecular_target": "T3, S-SMase (Homo sapiens, UniProt P17405)", "T3 sequence (P17405 47-631)": "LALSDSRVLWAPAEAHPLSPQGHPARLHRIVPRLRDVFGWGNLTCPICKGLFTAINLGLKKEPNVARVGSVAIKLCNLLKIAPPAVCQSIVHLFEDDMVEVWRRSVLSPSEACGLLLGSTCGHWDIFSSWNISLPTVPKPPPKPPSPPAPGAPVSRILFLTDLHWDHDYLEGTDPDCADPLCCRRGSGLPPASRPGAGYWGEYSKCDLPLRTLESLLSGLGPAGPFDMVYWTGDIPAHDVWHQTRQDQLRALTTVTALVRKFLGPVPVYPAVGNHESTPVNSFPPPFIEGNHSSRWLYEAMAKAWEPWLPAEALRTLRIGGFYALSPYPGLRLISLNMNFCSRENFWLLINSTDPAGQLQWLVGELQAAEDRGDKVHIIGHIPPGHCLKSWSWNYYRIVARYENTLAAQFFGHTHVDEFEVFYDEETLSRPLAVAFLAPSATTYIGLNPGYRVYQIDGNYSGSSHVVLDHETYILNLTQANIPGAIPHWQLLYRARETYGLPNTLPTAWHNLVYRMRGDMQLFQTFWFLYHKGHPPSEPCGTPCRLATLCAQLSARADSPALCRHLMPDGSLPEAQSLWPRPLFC", "assay": "Zn2+ activation of S-SMase in presence of zinc-metalloproteinase inhibitors", "format": "biochemical", "description": "as §1, with “μl. The reaction was initiated by the addition of 40 μl substrate (50 pmol [^3H]sphingomyelin) in 0.25 M sucrose containing 3% Triton X-100 (final concentration of Triton X-100 in the 200-μl assay mix=0.6%). When added, the final concentrations of EDTA and Zn^2+ were 5 mM and 0.1 mm, respectively, unless indicated otherwise.” for “μl.”\nOne question was how L- and S-SMase acquire their apparent differences in zinc-dependency. One explanation would be that the secreted form requires a Zn^2+-dependent co-factor. Because many lysosomal enzymes undergo proteolytic activation (Hasilik, 1992), an obvious candidate for a Zn^2+-dependent co-factor would be a zinc-metalloproteinase. The results of five experiments, however, ruled out this possibility. First, Zn^2+-activated S-SMase can be subsequently inactivated by Zn^2+-chelation (see below); reversibility of Zn^2+-induced activation is not consistent with proteolytic activation. […] Third, mammalian zinc-metalloproteinases require Ca^2+ as well as Zn^2+, for activity (Reynolds, 1996), whereas Ca^2+ is not a requirement for the activation of S-SMase (Schissel et al., 1996)."}, "[4]": {"test_system": "S-SMase secretion by HUVECs", "assay": "Cytokine regulation of S-SMase secretion by HUVECs (SMase activity in conditioned media)", "format": "cell-based, human", "conditions": "18 h, interferon-β 1000 units/ml, IL-4 10 ng/ml"}, "[5]": {"molecular_target": "T3, S-SMase", "assay": "S-SMase treatment of [3H]SM-LDL and [3H]SM-emulsions at pH 7.4", "format": "biochemical", "set-up": "endogenous in cells; host or cells: primary HUVEC, 24-h serum-free conditioned medium", "description": "[^3H]SM-emulsions. [^3H]SM-emulsions with a lipid composition similar to human LDL were prepared as follows: 5.4 mg cholesteryl oleate, 0.48 mg triolein, 1.08 mg free cholesterol, 2.04 mg phosphatidylcholine, 0.96 mg sphingomyelin, and 50 μCi [N-palmitoyl-9,10^−3H]sphingomyelin were all added in chloroform to a sonication vial and the solvent completely evaporated by exposure to a stream of nitrogen, followed by the high vacuum of a lyophilizer. The dried lipids were resuspended in 3 mL of buffer containing 150 mM NaCl, 0.3 mM EDTA pH 7.4 and sonicated under a stream of argon at 40° C. until translucent (approximately 90 min) The sonicated material was then centrifuged twice at 15,000×g to pellet any titanium shed from the sonication probe. SM-rich emulsions were prepared exactly as above except that 1.2 mg of phosphatidylcholine and 1.8 mg of SM were used, and sonication time was increased to 120 min. [^3H]SM-emulsions were enriched with apo CIII based on the method of Ahmad et al. (Ahmad et al., 1986). Briefly, [^3H]SM-emulsions (0.4 mL; 182 nmol SM) were incubated with 200 μg apo CIII (22.5 nmol) for 2 h at 40° C. A portion of the emulsions were re-isolated from free ape CIII using ultrafiltration (Clavey et al., 1995) as follows: the crude emulsion-apo CIII mixture was diluted to 2 mL with buffer containing 150 mM NaCl, 0.3 mM EDTA pH 7.4 and ultra filtered and concentrated to 0.2 mL using a CENTRICON® 30 (molecular weight cut-off=30,000); the concentrated emulsions were then diluted to 2 mL and the process was repeated 5 times. [^3H]SM-emulsions run through the same enrichment and re-isolation protocols in the absence of apo CIII served as the control for the experiments in FIG. 11A.\nS-SMase. The source of S-SMase was serum-free conditioned medium from DG44 CHO cells stably transfected with the human acid SMase cDNA (Schissel et al., 1996; Schuchman et al., 1991). […] Cells were plated in 100-mm dishes and cultured for 48 h in DMEM/FBS/PSG. The cells were then changed to low protein serum-free media for 12 h. washed 3 times with PBS, and finally incubated for 18 h in fresh serum-free media (6 mL per 100-mm dish) The “18-h conditioned medium” was then collected, centrifuged at 1000×g to pellet any cells and, except where indicated, ZnCl2 (final concentration=100 μM) was added to fully activate and stabilize S-SMase; this S-SMase-containing conditioned media was then used fresh to treat LDL and lipid emulsions.\nS-SMase Treatment of LDL and Emulsions. The standard incubation mixture consisted of up to 50 μl of sample (LDL or emulsions). […] The ceramide spots were scraped and directly counted to quantify [^3H]ceramide. In all other samples ceramide was determined as described above."}}, "data": [{"molecule": "c1cnc2c(c1)ccc1cccnc12", "note": "[1,10-phenanthroline]", "values": [{"measurement": "inhibition of L-SMase", "setting": "[1]", "value": "does not inhibit"}, {"measurement": "inhibition of S-SMase", "setting": "[2]", "value": "does not inhibit"}]}, {"molecule": "HO—NH—CO—CH2—CH(CH2CH(CH3)2)—C)-Nal-Ala-NH—CH2—CH2—NH2", "values": [{"measurement": "effect on ability of Zn2+ to activate S-SMase", "setting": "[3]", "value": "did not affect"}]}, {"molecule": "HS—CH2—R—CH(CH2—CH(CH3)2)—C)-Phe-Ala-NH2", "values": [{"measurement": "effect on ability of Zn2+ to activate S-SMase", "setting": "[3]", "value": "did not affect"}]}, {"molecule": "IL-4: human recombinant interleukin-4", "values": [{"measurement": "accumulation of S-SMase in conditioned media (qualitative)", "setting": "[4]", "value": "no effect"}]}, {"molecule": "TIMP-1: tissue inhibitor of metalloproteinase-1, inhibitor of zinc-metalloproteinases", "values": [{"measurement": "effect on ability of Zn2+ to activate S-SMase", "setting": "[3]", "value": "did not affect"}]}, {"molecule": "apo CIII: human native apolipoprotein CIII", "values": [{"measurement": "S-SMase hydrolysis of [3H]SM-emulsions versus control emulsions", "setting": "[5]; emulsion-bound + free apo CIII", "value": "two-fold greater"}, {"measurement": "S-SMase hydrolysis of [3H]SM-emulsions versus control emulsions", "setting": "[5]; emulsion-bound apo CIII only", "value": "approximately ten-fold more"}]}, {"molecule": "lysophosphatidylcholine", "values": [{"measurement": "stimulation of S-SMase hydrolysis of [3H]SM-LDL", "setting": "[5]; exogenously added", "value": "2-3 fold"}]}, {"molecule": "B1", "values": [{"measurement": "S-SMase hydrolysis of [3H]SM-LDL after treating the LDL with sPLA2", "setting": "[5]; LDL pretreated 14 h at 37° C.", "value": "markedly enhanced"}]}]}
